# In article PMC7582905, “Effect of Disulfide Cyclization of Ultrashort Cationic Lipopeptides on Antimicrobial Activity and Cytotoxicity” (International Journal of Molecular Sciences, 2020):
# Where two headings read alike, the source gives them in different places. Where a SMILES comes first, the peptide text is derived from it. Bridges are numbered along the chain shown (N, C = ends). The star is where a group is joined. Palmitoyl = CCCCCCCCCCCCCCCC(=O)*
# Legend:
# [1] = system: Candida lipolytica PCM 2680-FY; type: cell-based; conditions: 24 h
# Procedure: (§1) The Staphylococcus aureus ATCC 25923, Staphylococcus epidermidis ATCC 14990, Escherichia coli ATCC 25922, Pseudomonas aeruginosa ATCC 9027, Candida albicans ATCC 10231, Candida glabrata ATCC 15126, Candida lipolytica PCM 2680-FY, and Candida tropicalis PCM 2709-FY strains were acquired from the Polish Collection of Microorganisms (PCM, Polish Academy of Sciences, Wrocław, Poland) and from the American Type Culture Collection (ATCC). All the strains were stored at −80 °C in Roti-Store cryo vials and before the tests were transferred into fresh Mueller–Hinton broth (MHB, Biocorp, Warsaw, Poland) for bacteria or RPMI-1640 (Sigma-Aldrich, Steinheim, Germany) for fungi and incubated for 24 h at 37 °C. Then, the cultures were seeded on Mueller–Hinton agar (BioMaxima, Lublin, Poland) or Sabouraud dextrose agar (SDA, BioMaxima, Lublin, Poland) plates, respectively, and incubated as just mentioned. These agar cultures were used for further microbiological assays. Cell densities for all assays were adjusted spectrophotometrically (Multiskan GO Microplate Spectrophotometer, Thermo Fisher Scientific, Vantaa, Finland) at 600 and 660 nm for bacteria and fungi, respectively.
# (§2) The MICs were determined by broth microdilution method according to the Clinical and Laboratory Standard Institute guidelines For this purpose, initial inoculums of bacteria (5 × 10^5 CFU/mL) in MHB and yeasts (2 × 10^3 CFU/mL) in RPMI-1640 with 2% D-glucose were exposed to the ranging concentration of lipopeptides (0.5–256 μg/mL) and incubated at 37 °C for 18 h and 24 h, respectively. The experiments were conducted on 96-well microtiter polystyrene plates. The growth was assessed visually after incubation and the MIC was assumed as the lowest peptide concentration at which a noticeable growth of microorganisms was inhibited. All experiments were conducted in triplicate.
# [2] = system: Escherichia coli ATCC 25922; type: cell-based
# Procedure: as §1, §2
# [3] = system: Candida glabrata ATCC 15126; type: cell-based
# Procedure: as §1, §2
# [4] = system: Pseudomonas aeruginosa ATCC 9027; type: cell-based
# Procedure: as §1, §2
# [5] = RP-HPLC determination of peptide hydrophobicity; type: physicochemical; conditions: 0.1% TFA; for reduced retention time t’R: RP-HPLC retention as measure of hydrophobicity, Waters X-Bridge Shield RP-18 3.0 × 100 mm, 3.5 μm, linear 20–65% acetonitrile in water over 30 min, 0.5 mL/min, 25.0 °C, UV 214 nm, 1 g/L, triplicate; for ∆tR: tR of cyclic analog − tR of parent lipopeptide, RP-HPLC, RP-18, 20–65% acetonitrile over 30 min
# Procedure: The peptides were analyzed by RP-HPLC to determine relative hydrophobicity vs. retention time of each compound. In general, more hydrophobic lipopeptides will elute later than hydrophilic ones. Using this simple rule enables comparison of hydrophobicity by reduced retention times (t’R) and differences in retention time between the cyclic analog and its linear parent lipopeptide (Table 1). It can be deduced that the presence of cystine moiety has led to increased hydrophobicity. All cyclic lipopeptides are more hydrophobic than their linear counterparts but the effect of disulfide cyclization on retention is different in each pair. The highest increase in retention was noticed for the shortest lipopeptides L1 (C16-KKK-NH2) and C1 (C16-CKKKC-NH2). The differences between lipopeptides with one arginine residue indicate that its position is crucial for retention and therefore hydrophobicity. To learn how the arginine position affects hydrophobicity, the retention time of compound L2 (C16-KKKK-NH2) or C2 (C16-CKKKKC-NH2) was subtracted from that of the lipopeptides with one arginine residue, linear (L3, L4, L5, L6) or cyclic (C3, C4, C5, C6), respectively. In Figure 2 the effect of arginine position on retention time is related to unsubstituted lipopeptide.
# To determine peptide hydrophobicity, a Waters Alliance e2695 system with a Waters 2998 PDA Detector (software-Empower 3, Waters, Milford, MA, USA) was used. All analyses were carried out on a Waters X-Bridge Shield RP-18 column (3.0 × 100 mm, 3.5 μm particle size, 130 Å pore size). The Shield Technology column with embedded polar groups was used to minimize interactions of unreacted silanol groups with basic lipopeptides. The peptides were dissolved in water (0.1% TFA, v/v) up to a concentration of 1 g/L. UV detection at 214 nm was used, and samples (10 μL) were eluted with a linear 20–65% acetonitrile gradient in deionized water over 30 min at 25.0 ± 0.1 °C. The mobile phase flow rate was 0.5 mL/min. Both eluents contained 0.1% (v/v) of TFA. Each peptide sample was analyzed in triplicate. Maximum standard deviation and coefficient of variation were 0.042 and 0.25%, respectively.
# [6] = system: Staphylococcus epidermidis ATCC 14990; type: cell-based
# Procedure: as §1
# (§3) MBECs were determined on 96-well polystyrene flat-bottom plates. For this purpose, 24 h cultures of microorganisms were diluted to obtain final density 5.0 × 10^5 CFU/mL and 2.0 × 10^5 CFU/mL of bacteria and fungi, respectively. Briefly, 100 µL of cell suspension was added into the test plates. After 24 h of incubation at 37 °C the wells were rinsed three times with a phosphate buffer saline (PBS, pH 7.4) to remove non-adherent cells. Subsequently, 100 μL of the test compounds in concentration range (0.5–256 μg/mL) were added to each well. After 24 h of incubation at 37 °C, 20 μL of a cell viability reagent was added (resazurin, 4 g/L; Sigma Aldrich, St. Louis, MO, USA). The MBEC was read after 1 h. The determined values were recorded as the lowest concentration at which the reduction of resazurin (from blue to pink) was lower or equal to 10 ± 0.5% as compared to the positive (100%) and negative (0%) controls. The reduction was monitored by measuring absorbance at 570 nm (reduced) and 600 nm (oxidized) using a microplate spectrophotometer (Multiskan GO Microplate Spectrophotometer, Thermo Fisher Scientific, Vantaa, Finland). All experiments were conducted in triplicate.
# [7] = system: Candida lipolytica PCM 2680-FY; type: cell-based
# Procedure: as §1, §3
# [8] = system: Candida albicans ATCC 10231; type: cell-based
# Procedure: as §1, §3
# [9] = system: Escherichia coli ATCC 25922; type: cell-based; remark: listed apart in the source
# Procedure: as §1, §3
# [10] = system: Candida glabrata ATCC 15126; type: cell-based; remark: listed apart in the source
# Procedure: as §1, §3
# [11] = system: Pseudomonas aeruginosa ATCC 9027; type: cell-based; remark: listed apart in the source
# Procedure: as §1, §3
# [12] = system: Candida tropicalis PCM 2709-FY; type: cell-based
# Procedure: as §1, §3
# [13] = broth microdilution (CLSI), MHB, 5 × 10^5 CFU/mL, 37 °C, 18 h, visual, triplicate
# [14] = 24 h biofilm on polystyrene plates, 24 h exposure at 37 °C, resazurin, triplicate
SMILES,reduced retention time t’R [5] [min],∆tR [5],MIC C. lipolytica [1] [µg/mL],"MIC E. coli ([2]; ATCC 25922, 18 h) [µg/mL]","MIC C. glabrata ([3]; ATCC 15126, 24 h) [µg/mL]","MIC P. aeruginosa ([4]; ATCC 9027, 18 h) [µg/mL]","MBEC S. epidermidis ([6]; ATCC 14990, 24 h) [µg/mL]",MBEC C. lipolytica ([7]; 24 h) [µg/mL],"MBEC C. albicans ([8]; ATCC 10231, 24 h) [µg/mL]","MBEC E. coli ([9]; ATCC 25922, 24 h) [µg/mL]","MBEC C. glabrata ([10]; ATCC 15126, 24 h) [µg/mL]","MBEC P. aeruginosa ([11]; ATCC 9027, 24 h) [µg/mL]","MBEC C. tropicalis ([12]; PCM 2709-FY, 24 h) [µg/mL]",other results
"CCCCCCCCCCCCCCCC(=O)N[C@H]1CSSC[C@@H](C(N)=O)NC(=O)[C@H](CCCCN)NC(=O)[C@H](CCCCN)NC(=O)[C@H](CCCCN)NC(=O)[C@H](CCCCN)NC1=O [C2, C16-CKKKKC-NH2] (Palmitoyl-CKKKKC-NH2; disulfide 1-6)",15.95,+1.18 min,–,–,–,–,–,–,–,–,–,–,–,"MIC C. lipolytica ([1]; broth microdilution (CLSI), RPMI-1640 with 2% D-glucose, 2 × 10^3 CFU/mL, 37 °C, visual, triplicate): 2 µg/mL; MIC E. coli [2, 13]: 64 µg/mL; MIC C. glabrata ([3]; broth microdilution (CLSI), RPMI-1640 with 2% D-glucose, 2 × 10^3 CFU/mL, 37 °C, 24 h, visual, triplicate): 4 µg/mL; MIC P. aeruginosa [4, 13]: 32 µg/mL; MBEC S. epidermidis [6, 14]: 32 µg/mL; MBEC C. lipolytica [7, 14]: 16 µg/mL; MBEC C. albicans [8, 14]: 64 µg/mL; MBEC E. coli [9, 14]: 64 µg/mL; MBEC C. glabrata [10, 14]: 64 µg/mL; MBEC P. aeruginosa [11, 14]: > 256 µg/mL; MBEC C. tropicalis [12, 14]: 32 µg/mL"
"CCCCCCCCCCCCCCCC(=O)N[C@H]1CSSC[C@@H](C(N)=O)NC(=O)[C@H](CCCCN)NC(=O)[C@H](CCCCN)NC(=O)[C@H](CCCNC(=N)N)NC(=O)[C@H](CCCNC(=N)N)NC1=O [C7, C16-CRRKKC-NH2] (Palmitoyl-CRRKKC-NH2; disulfide 1-6)",16.83,+1.25 min,4,16,4,256,64,16,64,256,64,256,32,–
"CCCCCCCCCCCCCCCC(=O)N[C@@H](CCCCN)C(=O)N[C@@H](CCCNC(=N)N)C(=O)N[C@@H](CCCCN)C(=O)N[C@@H](CCCCN)C(N)=O [L4, C16-KRKK-NH2] (Palmitoyl-KRKK-NH2)",15.18,–,1,8,32,32,32,32,128,64,128,>256,64,–
"CCCCCCCCCCCCCCCC(=O)N[C@@H](CCCCN)C(=O)N[C@@H](CCCCN)C(=O)N[C@@H](CCCCN)C(=O)N[C@@H](CCCNC(=N)N)C(N)=O [L6, C16-KKKR-NH2] (Palmitoyl-KKKR-NH2)",14.89,–,8,8,64,64,32,32,128,256,128,256,128,–
"CCCCCCCCCCCCCCCC(=O)N[C@H]1CSSC[C@@H](C(N)=O)NC(=O)[C@H](CCCCN)NC(=O)[C@H](CCCCN)NC(=O)[C@H](CCCCN)NC1=O [C1, C16-CKKKC-NH2] (Palmitoyl-CKKKC-NH2; disulfide 1-5)",18.05,+1.91 min,4,16,4,256,32,64,256,256,256,256,128,–
"CCCCCCCCCCCCCCCC(=O)N[C@@H](CCCCN)C(=O)N[C@@H](CCCCN)C(=O)N[C@@H](CCCNC(=N)N)C(=O)N[C@@H](CCCCN)C(N)=O [L5, C16-KKRK-NH2] (Palmitoyl-KKRK-NH2)",15.01,–,8,8,64,64,32,64,256,64,256,256,128,–
